Results: patent publication US9993492B2, “Lysophospholipids and lysophospholipid analogues against honeybee brood diseases” (University of Graz, priority 2013, dated 2018)

Experiments:
honeybee larvae = format: in vivo; details: LPC 10 μg/larva added on day 1, Nlarvae 192
Method: (§1) First instar larvae were transferred into plastic queen cups and fed the following diets: On the first day 10 μL of diet containing 6% glucose, 6% fructose, 1% yeast extract and 50% royal jelly were fed. Test substances (1-O-oleoyl-sn-glycero-3-phosphocholine (oleoyl-LPC), stearic acid, lysophosphatidylinositol and linoleic acid) were added to the first diet in amounts of 0.5 to 10 μg/larvae. For infection with spores of Paenibacillus larvae, larvae were grafted into 5 μL of diet containing test substances and subsequently 5 μL of diet with about 50 added Pl spores were given. Larvae were not fed on the second day to assure the consumption of the given diet. On the third day 20 μL of diet containing 7.5% glucose, 7.5% fructose, 1.5% yeast extract and 50% royal jelly were fed. Amounts of 30, 40 and 60 μL of diet composed of 9% glucose, 9% fructose, 2% yeast extract and 50% royal jelly were fed on the 4th, 5th and 6th day (method modified after Aupinel et al. [Aupinel et al. 2005. Bull Insectol 58:107-111]. Larvae were incubated at 34.5° C. and 95% relative humidity which was reduced to 80% on day 7. The mortality was checked daily for the first 7 days and when individuals emerged from queen cups at day 18 after the transfer into cups. To reduce the time for sporulation of Pl in the lab for security reasons, infection tests with Pl spores were stopped at day 7 with some experiments extend to day 12.
Larvae were fed according to a slightly modified rearing method of Aupinel et al., (2005). Larvae were fed for 6 days with different amounts of diets which always contained 50% of an aqueous solution (A, B, C) and 50% royal jelly (w/w). The solutions consisted of yeast extract (A=2%, B=3%, C=4%), glucose and fructose (A=12%, B=15%, C=18% each). 50 g portions of royal jelly (purchased from the Styrian school of beekeepers) were freeze stored at −20° C. Once a day all components of the needed diet were mixed freshly, warmed and fed to the larvae with a micro-pipette. On day 1 and 2 each larva was fed with 10 μL of diet A, on day three with 20 μL of diet B, on day four (30 μL), five (40 μL) and six (50 μL) with diet C. This way, each larva was supported with a total amount of 160 μL of food. The test compounds (see Table 4) were added each at the respective concentration on day 1, i.e. stearic acid (10 μg/larva), lysophosphatidylinositol (5 μg/larva), linoleic acid (12 μg/larva) and oleyol-LPC (10 μg/larva). Each larva was checked for its state of health under the binocular before feeding. A larva was defined healthy when movements of spiracles could be observed and it was shiny and plump. Cups with dead larvae were removed from the plate to prevent infections. To avoid microbial contamination, feeding took place under a laminar flow. Larvae were incubated at 34.5° C. and 90% RH. The mortality rates of the larvae are given below in table 4.1.

Pl-infected larvae = assay: In vivo effect of LPC on Pl-infected larvae; parameters: species or system Apis mellifera; details: LPC 10 μg/larva on day 1, 2 and 3 + 50 spores/larva (ERIC II, strain 233/00) on day 1, replicates separated by /, Nlarvae 71/48/48
Method: as §1
In vivo effect of LPC on Pl-infected larvae: Artificial larval rearing was performed as described above. Larvae were individually infected with a dose of c. 50 spores/larva (ERIC II, strain 233/00) given on the first day. LPC was administered on day 1, 2 and 3 in a dose of 10 μg/d. Mortality was checked daily until d 12.

SMILES: CCCCCCCC/C=C\CCCCCCCC(=O)OC[C@@H](O)COP(=O)([O-])OCC[N+](C)(C)C [1-O-oleoyl-sn-glycero-3-phosphocholine]
- Ndead larvae day 1 (honeybee larvae): 0
- Ndead larvae day 2 (honeybee larvae): 7
- Ndead larvae day 3 (honeybee larvae): 1
- Ndead larvae day 4 (honeybee larvae): 1
- Ndead larvae day 5 (honeybee larvae): 0
- Ndead larvae day 6 (honeybee larvae): 0
- Ndead larvae day 7 (honeybee larvae): 4
- Ndead larvae total (honeybee larvae; days 1-7): 13
- Ndead larvae total (Pl-infected larvae; days 1-12): 26/12/14
- Ndead larvae day 1 (Pl-infected larvae): 0/0/0
- Ndead larvae day 2 (Pl-infected larvae): 1/0/0
- Ndead larvae day 3 (Pl-infected larvae): 3/2/4
- Ndead larvae day 4 (Pl-infected larvae): 11/5/8
- Ndead larvae day 5 (Pl-infected larvae): 7/2/0
- Ndead larvae day 6 (Pl-infected larvae): 1/1/1
- Ndead larvae day 7 (Pl-infected larvae): 1/1/0
- Ndead larvae day 8 (Pl-infected larvae): 0/0/1
- Ndead larvae day 9 (Pl-infected larvae): 0/0/0
- Ndead larvae day 10 (Pl-infected larvae): 2/0/0
- Ndead larvae day 11 (Pl-infected larvae): 0/1/0
- Ndead larvae day 12 (Pl-infected larvae): 0/0/0
